From patent US11845760B2, “PRMT5 inhibitors” (AMGEN INC., priority 2020, dated 2023)
Like-named read-outs stand apart in the source and are kept apart here.

Key:
HCT116 MTAP null cells = experiment: HCT116 MTAP null cell line proliferation (CellTiter-Glo cell viability, 6 days); type: cell-based; conditions: HCT116 MTAP null cells, 6 days of treatment, CellTiter-Glo cell viability, read-out: HCT-116 MTAP null IC50
In short: (§1)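 Isogenic HCT116 pair (both MTAP alleles knocked out vs parent) in RPMI 1640 + 10% FBS, seeded overnight at 37° C, 5% CO2, then exposed 6 days to 8- or 9-point 1:3 dilutions from 1 or 10 μM. CellTiter-Glo luminescence; IC50 from sigmoidal fit, Hill slope fixed −1, top 100%, or 4-parameter logistic.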

HCT116 WT cells = experiment: HCT116 WT cell line proliferation (CellTiter-Glo cell viability, 6 days); type: cell-based; conditions: HCT116 WT (parent) cells, 6 days of treatment, CellTiter-Glo cell viability, read-out: HCT-116 WT IC50
In short: as §1

| Structure (SMILES) | IC50 (HCT116 MTAP null cells; HCT116-MTAP null, 144 h) [µM] | IC50 (HCT116 WT cells; Homo sapiens, HCT-116, 144 h) [µM] | IC50 (HCT116 MTAP null cells) [µM] | IC50 (HCT116 WT cells) [µM] |
| --- | --- | --- | --- | --- |
| Cc1ccc([C@@H]2COCCN2C(=O)c2ccc3nc(N)c4c(c3c2)COC4)cn1 (single isomer, unassigned) [Example 605] | > 1 | > 10 |  |  |
| Cc1ccc([C@H]2COCCN2C(=O)c2ccc3nc(N)c4c(c3c2)COC4)cn1 (single isomer, unassigned) [Example 606] | 1.03 | > 10 |  |  |
| Cc1ccc([C@H]2COCCN2C(=O)c2cc3c4c(c(N)nc3cn2)COC4)cn1 (single isomer, unassigned) [Example 607] | > 1 | > 10 |  |  |
| Cc1ccc([C@@H]2COCCN2C(=O)c2cc3c4c(c(N)nc3cn2)COC4)cn1 (single isomer, unassigned) [Example 608] | > 1 | > 10 |  |  |
| Nc1nc2ccc(C(=O)N3CCOC[C@@H]3c3ccc(C(F)(F)F)nc3)cc2c2c1COC2 (single isomer, unassigned) [Example 609] | 0.207 | 9.11 |  |  |
| Nc1nc2ccc(C(=O)N3CCOC[C@H]3c3ccc(C(F)(F)F)nc3)cc2c2c1COC2 (single isomer, unassigned) [Example 610] | > 1 | > 10 |  |  |
| Nc1nc2cnc(C(=O)N3CCOC[C@H]3c3cnc(C(F)(F)F)nc3)cc2c2c1COC2 (single isomer, unassigned) [Example 611] | > 1 | > 10 |  |  |
| Nc1nc2cnc(C(=O)N3CCOC[C@@H]3c3cnc(C(F)(F)F)nc3)cc2c2c1COC2 (single isomer, unassigned) [Example 612] | > 1 | > 10 |  |  |
| Nc1nc2cnc(C(=O)N3CCOC[C@@H]3c3cnc(C(F)(F)F)cn3)cc2c2c1COC2 (single isomer, unassigned) [Example 613] | 1.83 | > 10 |  |  |
| Nc1nc2cnc(C(=O)N3CCOC[C@H]3c3cnc(C(F)(F)F)cn3)cc2c2c1COC2 (single isomer, unassigned) [Example 614] |  |  | > 10 | > 10 |
| Nc1nc2cnc(C(=O)N3CCOC[C@@H]3c3cc(C(F)(F)F)cs3)cc2c2c1COC2 (single isomer, unassigned) [Example 615] | 0.241 | 3.46 |  |  |
| Nc1nc2cnc(C(=O)N3CCOC[C@H]3c3ccc(C(F)(F)F)s3)cc2c2c1COC2 (single isomer, unassigned) [Example 616] | 3.24 | > 10 |  |  |
| Nc1nc2cnc(C(=O)N3CCOC[C@@H]3c3ccc(C(F)(F)F)s3)cc2c2c1COC2 (single isomer, unassigned) [Example 617] | 0.228 | 5.73 |  |  |
| Nc1nc2cnc(C(=O)N3CCOC[C@@H]3c3cc(Cl)c(Cl)s3)cc2c2c1COC2 (single isomer, unassigned) [Example 618] | 0.3 | > 10 |  |  |
| C[C@H]1OCc2c1c(N)nc1cnc(C(=O)N3CCOC[C@@H]3c3ccc(OC(F)(F)F)cc3)cc21 (single isomer, unassigned) [Example 619] | 0.049 | 1.98 |  |  |
| Cn1ncc2c(N)nc3cc(F)c(C(=O)N4C[C@@H]5C[C@]5(c5ccc(C(F)(F)F)cc5)C4)cc3c21 (single isomer, unassigned) [Example 620] | 0.634 | 4.23 |  |  |
| Cn1ncc2c(N)nc3cc(F)c(C(=O)N4C[C@H]5C[C@@]5(c5ccc(C(F)(F)F)cc5)C4)cc3c21 (single isomer, unassigned) [Example 621] | 0.175 | 4.41 |  |  |

| Structure (SMILES) | IC50 (HCT116 MTAP null cells; HCT116-MTAP null, 144 h) [µM] | IC50 (HCT116 WT cells; Homo sapiens, HCT-116, 144 h) [µM] | IC50 (HCT116 MTAP null cells) [µM] | IC50 (HCT116 WT cells) [µM] |
| --- | --- | --- | --- | --- |
| Nc1nc2ccc(C(=O)N3CCOC[C@@H]3c3ncc(Br)cc3F)cc2c2c1COC2 (single isomer, unassigned) [Example 622] | 0.239 | 7.95 |  |  |
| Nc1nc2ccc(C(=O)N3CCOCC3c3ncccn3)cc2c2c1COC2 (centres unmarked) [Example 300, (4-amino-1,3-dihydrofuro[3,4-c]quinolin-8-yl)(3-(pyrimidin-2-yl)morpholino)methanone] | > 1 | > 10 |  |  |
| Nc1nc2ccc(C(=O)N3CCOC[C@@H]3c3ccc(OC(F)(F)F)cc3)cc2c2c1COC2 [Example 335, (4-amino-1,3-dihydrofuro[3,4-c]quinolin-8-yl)-[(3S)-3-[4-(trifluoromethoxy)phenyl]morpholin-4-yl]methanone] | 0.091 | 2.69 |  |  |
| C[C@H]1OCc2c1c(N)nc1ccc(C(=O)N3CCOC[C@@H]3c3ccc(C(F)(F)C(F)(F)F)cc3)cc21 [Example 336, ((3R)-4-amino-3-methyl-1,3-dihydrofuro[3,4-c]quinolin-8-yl)((3S)-3-(4-(pentafluoroethyl)phenyl)-4-morpholinyl)methanone] | 0.039 | 1.62 |  |  |
| Cn1ncc2c3cc(C(=O)N4CCOC[C@@H]4c4ccc(OC(F)F)cn4)ccc3nc(N)c21 [Example 369, (4-amino-3-methyl-3H-pyrazolo[3,4-c]quinolin-8-yl)((3S)-3-(5-(difluoromethoxy)-2-pyridinyl)-4-morpholinyl)methanone] | 0.34 | 15.4 |  |  |
| C[C@@H]1COC[C@H](c2ccc(C(F)(F)F)cn2)N1C(=O)c1ccc2nc(N)c3c(cnn3C)c2c1 [Example 370, (4-amino-3-methyl-3H-pyrazolo[3,4-c]quinolin-8-yl)((3R,5S)-3-methyl-5-(5-(trifluoromethyl)-2-pyridinyl)-4-morpholinyl)methanone] | 0.03 | 2.02 |  |  |
| Cn1ncc2c(N)nc3cnc(C(=O)N4CCOC[C@@H]4c4ccc(C(F)(F)F)cc4)cc3c21 [Example 371, (4-amino-1-methyl-1H-pyrazolo[4,3-c][1,7]naphthyridin-8-yl)((3S)-3-(4-(trifluoromethyl)phenyl)-4-morpholinyl)methanone] | 0.022 | 0.707 |  |  |
| CC1(C)OCc2c1c(N)nc1ccc(C(=O)N3CCOC[C@@H]3c3ccc(OC(F)(F)F)cc3)cc21 [Example 382, (4-amino-3,3-dimethyl-1H-furo[3,4-c]quinolin-8-yl)-[(3S)-3-[4-(trifluoromethoxy)phenyl]morpholin-4-yl]methanone] | 0.786 | > 10 |  |  |
| Nc1nc2cnc(C(=O)N3CCOC[C@@H]3c3ccc(OC(F)F)nc3)cc2c2c1COC2.Nc1nc2cnc(C(=O)N3CCOC[C@H]3c3ccc(OC(F)F)nc3)cc2c2c1COC2 [Example 394, (4-amino-1,3-dihydrofuro[3,4-c][1,7]naphthyridin-8-yl)((3R)-3-(6-(difluoromethoxy)-3-pyridinyl)-4-morpholinyl)methanone (4-amino-1,3-dihydrofuro[3,4-c][1,7]naphthyridin-8-yl)((3S)-3-(6-(difluoromethoxy)-3-pyridinyl)-4-morpholinyl)methanone] |  |  | 0.624 | 36.4 |
| C[C@H]1OCc2c1c(N)nc1ccc(C(=O)N3CC(c4ccccc4)C4CCCC43)cc21 (stereo partly drawn) [Example 395, ((3R)-4-amino-3-methyl-1,3-dihydrofuro[3,4-c]quinolin-8-yl)(3-phenylhexahydrocyclopenta[b]pyrrol-1(2H)-yl)methanone] | 0.303 | 8.24 |  |  |
| C[C@H]1OCc2c1c(N)nc1ccc(C(=O)N3CC(c4ccc(Cl)cc4)CC3C3CC3)cc21 (stereo partly drawn) [Example 396, ((3R)-4-amino-3-methyl-1,3-dihydrofuro[3,4-c]quinolin-8-yl)(4-(4-chlorophenyl)-2-cyclopropylpyrrolidin-1-yl)methanone] | 0.866 | 13.3 |  |  |
| C[C@H]1OCc2c1c(N)nc1ccc(C(=O)N3CC(c4ccccc4)C4COCCC43)cc21 (stereo partly drawn) [Example 397, ((3R)-4-amino-3-methyl-1,3-dihydrofuro[3,4-c]quinolin-8-yl)(3-phenylhexahydropyrano[4,3-b]pyrrol-1(4H)-yl)methanone] | 0.38 | 32 |  |  |
| C[C@H]1OCc2c1c(N)nc1ccc(C(=O)N3C[C@H](c4ccc(Cl)cc4)C[C@H]3C3CC3)cc21 [Example 398, ((3R)-4-amino-3-methyl-1,3-dihydrofuro[3,4-c]quinolin-8-yl)((2S,4S)-4-(4-chlorophenyl)-2-cyclopropyl-1-pyrrolidinyl)methanone] | 0.609 | 13.2 |  |  |
| C[C@H]1OCc2c1c(N)nc1ccc(C(=O)N3C[C@@H](c4ccccc4)[C@@H]4COCC[C@@H]43)cc21 [Example 399, ((3R)-4-amino-3-methyl-1,3-dihydrofuro[3,4-c]quinolin-8-yl)((3R,3aS,7aS)-3-phenylhexahydropyrano[4,3-b]pyrrol-1(4H)-yl)methanone] | 0.197 | 13.1 |  |  |
| C[C@H]1OCc2c1c(N)nc1ccc(C(=O)N3C[C@@H](c4ccccc4)[C@@H]4CCC[C@@H]43)cc21 [Example 400, ((3R)-4-amino-3-methyl-1,3-dihydrofuro[3,4-c]quinolin-8-yl)((3R,3aS,6aS)-3-phenylhexahydrocyclopenta[b]pyrrol-1(2H)-yl)methanone] | 0.159 | 7 |  |  |
| C[C@H]1OCc2c1c(N)nc1ccc(C(=O)N3C[C@H](c4ccccc4)[C@H]4CCC[C@@H]43)cc21 [Example 401, ((3R)-4-amino-3-methyl-1,3-dihydrofuro[3,4-c]quinolin-8-yl)((3S,3aR,6aS)-3-phenylhexahydrocyclopenta[b]pyrrol-1(2H)-yl)methanone] | 0.677 | 17.6 |  |  |
| CC1CN(C(=O)c2ccc3nc(N)c4c(c3c2)CO[C@@H]4C)CC1c1ccc(Br)cc1 (stereo partly drawn) [Example 402, ((3R)-4-amino-3-methyl-1,3-dihydrofuro[3,4-c]quinolin-8-yl)(3-(4-bromophenyl)-4-methylpyrrolidin-1-yl)methanone] | 0.833 | 13.3 |  |  |
